Source: patent US11180496B2 (Daewoong Pharmaceutical Co., Ltd., priority 2017, dated 2021)

Experiments:
BTK = target: T1, BTK (Homo sapiens, UniProt Q06187); test: BTK inhibitory activity, ADP-Glo + BTK Kinase enzyme system kit (Promega); type: biochemical; conditions: BTK enzyme 1 ng/uL, ATP 10 uM, 15 min preincubation, luminescence, duplicate
T1 construct: purchased Promega
In short: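 BTK activity measured by ADP-Glo luminescence: kinase reaction with substrate and 10 uM ATP (final) for 1 h at 30°C, then ADP-Glo reagent 40 min and detection 30 min at 30°C. Run in duplicate; IC50 calculated relative to no-compound and positive controls.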

ITK = target: T2, ITK (Homo sapiens, UniProt Q08881); test: ITK inhibitory activity, ADP-Glo + ITK Kinase enzyme system kit (Promega); type: biochemical; conditions: ITK enzyme 0.4 ng/uL, ATP 25 uM, 15 min preincubation, luminescence, duplicate
T2 construct: purchased Promega
T2 sequence (Q08881 1-620): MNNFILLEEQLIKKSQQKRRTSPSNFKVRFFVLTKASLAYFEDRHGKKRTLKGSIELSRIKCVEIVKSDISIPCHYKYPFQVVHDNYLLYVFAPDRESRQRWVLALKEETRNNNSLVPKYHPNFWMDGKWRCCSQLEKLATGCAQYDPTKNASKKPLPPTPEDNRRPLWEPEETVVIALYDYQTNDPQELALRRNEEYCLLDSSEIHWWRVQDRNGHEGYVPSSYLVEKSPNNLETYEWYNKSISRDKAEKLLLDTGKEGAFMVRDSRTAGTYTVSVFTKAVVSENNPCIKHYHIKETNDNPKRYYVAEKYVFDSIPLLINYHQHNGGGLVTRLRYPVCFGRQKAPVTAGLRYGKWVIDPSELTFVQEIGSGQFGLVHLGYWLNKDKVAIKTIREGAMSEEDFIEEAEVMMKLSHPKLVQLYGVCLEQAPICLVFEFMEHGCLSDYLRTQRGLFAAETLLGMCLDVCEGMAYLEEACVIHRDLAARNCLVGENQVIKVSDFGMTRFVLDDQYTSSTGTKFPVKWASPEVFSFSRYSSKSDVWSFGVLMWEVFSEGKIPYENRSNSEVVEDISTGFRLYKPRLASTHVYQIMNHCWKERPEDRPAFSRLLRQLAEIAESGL
In short: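 ITK activity by ADP-Glo luminescence: substrate and ATP (final 25 uM) reacted 1 h at 30° C, then ADP-Glo reagent 40 min and detection reagent 30 min at 30° C. IC50 from duplicates, normalised to no-compound and enzyme-free controls.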

T1 sequence (Q06187 whole entry): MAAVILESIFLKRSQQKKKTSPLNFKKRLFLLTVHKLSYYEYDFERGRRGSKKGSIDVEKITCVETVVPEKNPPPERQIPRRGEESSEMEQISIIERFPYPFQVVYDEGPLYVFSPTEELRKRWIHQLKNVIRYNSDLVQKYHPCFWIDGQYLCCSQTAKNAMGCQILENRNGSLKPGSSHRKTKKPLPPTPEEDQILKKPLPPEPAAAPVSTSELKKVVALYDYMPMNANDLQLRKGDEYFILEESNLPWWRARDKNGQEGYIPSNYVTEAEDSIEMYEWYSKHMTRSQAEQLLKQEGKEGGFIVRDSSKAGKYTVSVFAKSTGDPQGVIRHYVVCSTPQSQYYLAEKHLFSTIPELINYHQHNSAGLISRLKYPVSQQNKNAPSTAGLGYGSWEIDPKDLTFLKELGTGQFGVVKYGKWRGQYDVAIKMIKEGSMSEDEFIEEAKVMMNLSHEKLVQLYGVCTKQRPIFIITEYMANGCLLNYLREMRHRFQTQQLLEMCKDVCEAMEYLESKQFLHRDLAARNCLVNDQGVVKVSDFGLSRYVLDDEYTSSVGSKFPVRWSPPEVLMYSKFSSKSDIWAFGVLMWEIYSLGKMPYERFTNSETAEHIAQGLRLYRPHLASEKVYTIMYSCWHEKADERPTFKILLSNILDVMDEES

Structure (SMILES) | IC50 (BTK) [nM] | IC50 (ITK) [nM]
C=CC(=O)N1CC[C@H](n2nc(-c3ccc(C(=O)Nc4ccccc4)cc3)c3c(N)nccc32)C1 [Example 47, (S)-4-(1-(1-acryloylpyrrolidin-3-yl)-4-amino-1H-pyrazolo[4,3-c]pyridin-3-yl)-N-phenylbenzamide] | 180 | > 1000
CC#CC(=O)N1CC[C@H](n2nc(-c3ccc(C(=O)Nc4ccccc4)cc3)c3c(N)nccc32)C1 [Example 48, (S)-4-(4-amino-1-(1-but-2-ynoylpyrrolidin-3-yl)-1H-pyrazolo[4,3-c]pyridin-3-yl)-N-phenylbenzamide] | > 400 | > 1000
C=CC(=O)N1CCC[C@@H](n2nc(-c3ccc(C(=O)Nc4ccccn4)cc3F)c3c(N)ncc(Cl)c32)C1 [Example 49, (R)-4-(1-(1-acryloylpiperidin-3-yl)-4-amino-7-chloro-1H-pyrazolo[4,3-c]pyridin-3-yl)-3-fluoro-N-(pyridin-2-yl)benzamide] | 1.2 | 3.3
C=CC(=O)N1CCC[C@@H](n2nc(-c3ccc(C(=O)Nc4ccccn4)cc3F)c3c(N)ncc(I)c32)C1 [Example 50, (R)-4-(1-(1-acryloylpiperidin-3-yl)-4-amino-7-iodo-1H-pyrazolo[4,3-c]pyridin-3-yl)-3-fluoro-N-(pyridin-2-yl)benzamide] | 1.3 | 2.1
C=CC(=O)N1CC2CC1[C@H](n1nc(-c3ccc(C(=O)Nc4ccccn4)cc3F)c3c(N)nccc31)C2 (stereo partly drawn) [Example 51, 4-(1-((6R)-2-acryloyl-2-azabicyclo[2.2.1]heptan-6-yl)-4-amino-1H-pyrazolo[4,3-c]pyridin-3-yl)-3-fluoro-N-(pyridin-2-yl)benzamide] | 0.5 | 30.8
C=CC(=O)N1CC(n2nc(-c3ccc(C(=O)Nc4ccccn4)cc3F)c3c(N)nccc32)C1 [Example 52] | 1.6 | 51.6
C=CC(=O)N1CCC[C@@H](n2nc(-c3ccc(C(=O)Nc4ccccn4)cc3F)c3c(N)ncc(C#N)c32)C1 [Example 53, (R)-4-(1-(1-acryloylpiperidin-3-yl)-4-amino-7-cyano-1H-pyrazolo[4,3-c]pyridin-3-yl)-3-fluoro-N-(pyridin-2-yl)benzamide] | 0.5 | 4.3
C=C(C)C(=O)N1CCC[C@@H](n2nc(-c3ccc(C(=O)Nc4ccccn4)cc3F)c3c(N)nccc32)C1 [Example 54, (R)-4-(4-amino-1-(1-methacryloylpiperidin-3-yl)-1H-pyrazolo[4,3-c]pyridin-3-yl)-3-fluoro-N-(pyridin-2-yl)benzamide] | 77.5 | > 1000
C=C(C)C(=O)N1CCC[C@@H](n2nc(-c3ccc(C(=O)Nc4ccccn4)cc3F)c3c(N)ncc(Cl)c32)C1 [Example 55, (R)-4-(4-amino-7-chloro-1-(1-methacryloylpiperidin-3-yl)-1H-pyrazolo[4,3-c]pyridin-3-yl)-3-fluoro-N-(pyridin-2-yl)benzamide] | 6.4 | 124
C=CC(=O)N1CCC[C@@H](n2nc(-c3ccc(C(=O)Nc4ccccn4)cc3Cl)c3c(N)nccc32)C1 [Example 56, (R)-4-(1-(1-acryloylpiperidin-3-yl)-4-amino-1H-pyrazolo[4,3-c]pyridin-3-yl)-3-chloro-N-(pyridin-2-yl)benzamide] | 0.4 | 0.6
C=CC(=O)N1CCC[C@@H](n2nc(-c3ccc(C(=O)Nc4ccccn4)cc3OC)c3c(N)nccc32)C1 [Example 57, (R)-4-(1-(1-acryloylpiperidin-3-yl)-4-amino-1H-pyrazolo[4,3-c]pyridin-3-yl)-3-methoxy-N-(pyridin-2-yl)benzamide] | 0.5 | 11.4
C=CC(=O)N1CCC[C@@H](n2nc(-c3ccc(C(=O)Nc4ccccn4)cc3Cl)c3c(N)ncc(Cl)c32)C1 [Example 58, (R)-4-(1-(1-acryloylpiperidin-3-yl)-4-amino-7-chloro-1H-pyrazolo[4,3-c]pyridin-3-yl)-3-chloro-N-(pyridin-2-yl)benzamide] | 8.8 | 9.3
C=CC(=O)N1CCC[C@@H](n2nc(-c3ccc(C(=O)Nc4ccccn4)cc3OC)c3c(N)ncc(Cl)c32)C1 [Example 59, (R)-4-(1-(1-acryloylpiperidin-3-yl)-4-amino-7-chloro-1H-pyrazolo[4,3-c]pyridin-3-yl)-3-methoxy-N-(pyridin-2-yl)benzamide] | 3.7 | 26
C=CC(=O)N1CC(n2nc(-c3ccc(C(=O)Nc4ccccn4)cc3F)c3c(N)ncc(Cl)c32)C1 [Example 60, 4-(1-(1-acryloylazetidin-3-yl)-4-amino-7-chloro-1H-pyrazolo[4,3-c]pyridin-3-yl)-3-fluoro-N-(pyridin-2-yl)benzamide] | 0.4 | 263
C=CC(=O)N1CCC[C@@H](n2nc(Nc3cnn(C4CC4)c3)c3c(N)nccc32)C1 [Example 61, (R)-1-(3-(4-amino-3-(1-cyclopropyl-1H-pyrazol-4-ylamino)-1H-pyrazolo[4,3-c]pyridin-1-yl)piperidin-1-yl)prop-2-en-1-one] | 187 | > 1000
C=CC(=O)N1CCC[C@@H](n2nc(Br)c3c(N)nccc32)C1 [Example 62, (R)-1-(3-(4-amino-3-bromo-1H-pyrazolo[4,3-c]pyridin-1-yl)piperidin-1-yl)prop-2-en-1-one] | 6.3 | 8.1
C=CC(=O)N1CC(n2nc(-c3ccc(C(=O)Nc4ccccn4)cc3Cl)c3c(N)nccc32)C1 [Example 63, 4-(1-(1-acryloylazetidin-3-yl)-4-amino-1H-pyrazolo[4,3-c]pyridin-3-yl)-3-chloro-N-(pyridin-2-yl)benzamide] | 3.1 | 30.1
C=CC(=O)N1CC(n2nc(-c3ccc(C(=O)Nc4ccccn4)cc3Cl)c3c(N)ncc(Cl)c32)C1 [Example 64, 4-(1-(1-acryloylazetidin-3-yl)-4-amino-7-chloro-1H-pyrazolo[4,3-c]pyridin-3-yl)-3-chloro-N-(pyridin-2-yl)benzamide] | 1.1 | 22.5
C=CC(=O)N1CCC[C@@H](n2nc(-c3ccc(C(=O)Nc4ccccn4)cc3Cl)c3c(N)ncc(I)c32)C1 [Example 65, (R)-4-(1-(1-acryloylpiperidin-3-yl)-4-amino-7-iodo-1H-pyrazolo[4,3-c]pyridin-3-yl)-3-chloro-N-(pyridin-2-yl)benzamide] | 0.4 | 1.3
C=CC(=O)N1CCC[C@@H](n2nc(-c3ccc(C(=O)Nc4ccccn4)cc3Cl)c3c(N)ncc(C#N)c32)C1 [Example 66, (R)-4-(1-(1-acryloylpiperidin-3-yl)-4-amino-7-cyano-1H-pyrazolo[4,3-c]pyridin-3-yl)-3-chloro-N-(pyridin-2-yl)benzamide] | 1.3 | 1.3
C=CC(=O)N1CCC[C@@H](n2nc(-c3ccc(C(=O)Nc4ccccn4)cc3Cl)c3c(N)ncc(-c4cnn(C)c4)c32)C1 [Example 67, (R)-4-(1-(1-acryloylpiperidin-3-yl)-4-amino-7-(1-methyl-1H-pyrazol-4-yl)-1H-pyrazolo[4,3-c]pyridin-3-yl)-3-chloro-N-(pyridin-2-yl)benzamide] | 2 | 2.7
C=CC(=O)N1CCC[C@@H](n2nc(-c3ccc(C(=O)Nc4ccccn4)cc3Cl)c3c(N)ncc(CC)c32)C1 [Example 68, (R)-4-(1-(1-acryloylpiperidin-3-yl)-4-amino-7-ethyl-1H-pyrazolo[4,3-c]pyridin-3-yl)-3-chloro-N-(pyridin-2-yl)benzamide] | 0.9 | 1.7
